From US20100093642A1, “NOVEL POLYPEPTIDES” (priority 2006, published 2010)
pIC50: −log10 of the molar value. Values after ≈ are worked out from the molar mass of the structure shown. Residues, ends and D or L forms follow the SMILES beside them. No end group written: not given here.

Legend:
Type in all cases: cell-based
Fusarium sp. = assay: Antifungal MIC; settings: filamentous fungi; more than 50% inhibition of visible growth, 48 h
Method: (§1) The various derivates of P17 (brominated and non-brominated) were tested for their ability to inhibit fungal growth of the yeast strains Saccaharomyces cerevisiae sp, Candida albicans (ATCC 10231) and Rodotorula sp., and the filamentous strains Botrytis cinerea 101, Penicillium rogveforti, and Fusarium sp. All strains, except C. albicans, were a gift from Prof. A. Tronsmo (The Norwegian University of Life Sciences, Ås, Norway). The fungi were cultivated on potato dextrose agar, supplemented with 2% glucose, at room temperature. Before antifungal testing, the fungi were dissolved in potato dextrose broth (Difco) at half-strength. Cell concentration was determined and adjusted after counting in a Bürker chamber. The filamentous fungi were filtered through a piece of cotton before counting. An aliquot of 50 μl of fungal spores (final concentration 2×10^5 spores per ml) were inoculated in microtiter plates (96 wells) along with 50 μl peptide solution. Peptides, dissolved in distilled water, were tested at final concentrations (two-fold dilutions) ranging from 50 μM to 0.1 μM. Cultures were grown in the dark (without shaking) and with a moist chamber at 25° C. (37° C. for C. albicans). Growth inhibition was determined microscopically after 48 h of incubation. MIC was determined as the lowest concentration of peptide resulting in 50% inhibition of visible growth.

Penicillum rogveforti = assay: Antifungal MIC; settings: filamentous fungi; more than 50% inhibition of visible growth, 48 h
Method: as §1

[1] = test system: human breast malignant carcinoma cell line MCF-7; settings: human, 24 h
[2] = test system: human skin malignant melanoma cell line A2058; settings: human, 24 h

`CC[C@H](C)[C@H](NC(=O)CNC(=O)[C@H](CO)NC(=O)[C@H](CCCCN)NC(=O)[C@@H](NC(=O)[C@H](C)NC(=O)[C@H](Cc1c[nH]cn1)NC(=O)[C@H](CO)NC(=O)[C@@H](NC(=O)[C@H](CCCCN)NC(=O)[C@H](Cc1c[nH]cn1)NC(=O)[C@H](Cc1ccccc1)NC(=O)[C@@H](NC(=O)[C@H](CCCCN)NC(=O)[C@H](CCCCN)NC(=O)[C@H](Cc1ccccc1)NC(=O)C(Cc1c[nH]c2ccc(Br)cc12)NC(=O)CN)[C@@H](C)O)C(C)C)C(C)C)C(=O)N[C@@H](Cc1c[nH]cn1)C(=O)N[C@@H](C)C(=O)NCC(=O)N[C@@H](CCC(N)=O)C(=O)N[C@@H](CCCNC(=N)N)C(=O)NCC(=O)N[C@@H](CS)C(=O)N[C@@H](CO)C(=O)N[C@@H](C)C(=O)N[C@@H](CC(C)C)C(=O)NCC(=O)N[C@@H](Cc1ccccc1)C(=O)O` (some centres unmarked) [P17 HC-Br] (HELM PEPTIDE1{G.[O=C(C(Cc1c[nH]c2ccc(Br)cc12)N[*:1])[*:2]].F.K.K.T.F.H.K.V.S.H.A.V.K.S.G.I.H.A.G.Q.R.G.C.S.A.L.G.F}$$$$V2.0) was tested. Which “Minimal inhibitory concentration (MIC), Fusarium sp.” value (Fusarium sp.) did it give?
Its value is 1.56 µM (≈ 5.18 µg/mL).

What about the “Minimal inhibitory concentration (MIC), Penicillum rogveforti” value (Penicillum rogveforti) of the same compound?
The value was 6.25 µM (≈ 20.8 µg/mL).

What about the pIC50 [1] of the same compound?
Its pIC50 is > 5.00.

What about the pIC50 [2] of the same compound?
Its pIC50 is > 5.00.

With GWFKKTFHKVSHAVKSGIHAGQRGCSALGF [P17 HC] as the compound, how does the “Minimal inhibitory concentration (MIC), Fusarium sp.” value (Fusarium sp.) read?
Its value is 1.56 µM.

And the “Minimal inhibitory concentration (MIC), Penicillum rogveforti” value (Penicillum rogveforti)?
Its value is 6.25 µM.

What about the pIC50 [1] of the same compound?
The pIC50 was > 5.00.

What about the pIC50 [2] of the same compound?
The pIC50 was > 5.00.
